{
  "source": "patent US20240091366A1",
  "about": "“NOVEL ACID-SENSITIVE APTAMER TRIPTOLIDE CONJUGATE AND APPLICATIONS” (priority 2022, published 2024)",
  "assay_in_all_cases": "MTT assay, cell proliferation inhibition",
  "assay_type_in_all_cases": "cell-based",
  "key": {"[1]": {"tested_on": "pancreatic cancer cell line PANC-1", "settings": "48 h", "source_text": "(§1) Material: aptamer triptolide conjugate (AS1411-TP). Triptolide (TP) was provided by Shanghai Yaji Biotechnology Co. Ltd; aptamer (AS1411) was obtained from Chengdu Pilot Drug Development Co. Ltd; trypsin, thiazolyl blue (MTT) (Biofroxx, Germany); dimethyl sulfoxide (DMSO) (MP Biomedicals, France); fetal bovine serum (FBS) (Newzerum, New Zealand); DMEM medium, RPMI1640 medium, Petri dishes, 96-well plates (Corning, USA); colon cancer cells HCT116, breast cancer cells MDA-MB-231, non-small-cell lung cancer cells A549, pancreatic cancer cells PANC-1, and hepatocellular carcinoma cells HepG2 were purchased from the Shanghai Cell Bank of the Chinese Academy of Sciences and preserved in the laboratory.\n(§2) Take the tumor cells HCT116, MDA-MB-231, A549, PANC-1 and HepG2 cell lines from the liquid nitrogen tank, place them in a 37° C. water bath, wait for the frozen cells to melt into cell suspension, centrifuge the cells at 1000 r/min for 3 min, discard the supernatant, add 1 ml of fresh complete medium containing 10% fetal bovine serum and 1% double antibody to mix the cells, then add 5 ml of medium, gently and repeatedly blowing the cells with a pipette gun to make them mix well. Then add 5 ml of medium, blow the cells gently and repeatedly with a pipette gun to mix them well, and finally transfer the cell suspension to a […] and label the cell name, cell number, date of resuscitation and the operator's name, and place it in a cell culture incubator for cultivation. (HCT116, PANC-1 and HepG2 cell lines were cultured in DMEM medium, while MDA-MB-231 cell line and A549 cell line were cultured in RPMI1640 medium).\n(§3) Take HCT116, MDA-MB-231, A549, PANC-1, HepG2 cells with good growth status, remove the medium, add 1 ml of sterile PBS to wash, add 1.5 ml of trypsin to digest the cells, about 2 min later the cells become round and fall off, add 1.5 ml of medium to terminate the digestion, transfer it to centrifugal tube, centrifuge at 1000 r/min for 3 min, discard the supernatant, add 1 ml of fresh medium to resuspend, then add fresh medium for 1:3 distribution to other culture dishes, and label the date of transmission and the number of generations. Place in the cell culture incubator for cultivation.\n(§4) Take HCT116, MDA-MB-231, A549, PANC-1, HepG2 cells with good growth status, by the same operation as the cell passaging experiment, after cell resuspension, cell counting with hemocyte counting plate, with 2500 cells/well, plant in 96-well plate, after 24 h of cell culture, remove the original medium, add medium containing different concentrations of drugs and continue to cultivate for 48 hours. After 24 h of cell culture, the original medium was removed and the medium containing different concentrations of drugs was added to continue the culture for 48 hours. […] The above steps were repeated three times."}, "[2]": {"tested_on": "colon cancer cell line HCT116", "settings": "48 h", "source_text": "as §1, §2, §3, §4"}, "[3]": {"tested_on": "lung adenocarcinoma cell line A549", "settings": "48 h, samples 1-3", "source_text": "as §1, §2, §3, §4"}},
  "note": "Several values for one entry are separate records, joined by “and”; a condition that tells them apart may be missing. Identical values can stand only once.",
  "data": [
    {"smiles": "CC(C)[C@]12O[C@H]1[C@@H]1O[C@]13[C@]1(O[C@H]1C[C@H]1C4=C(CC[C@@]13C)C(=O)OC4)[C@@H]2O", "note": "[TP, Triptolide]", "values": [
      {"measurement": "inhibition at 0.0031 µM", "setting": "[1]; Homo sapiens, PANC-1, 48 h, PANC-1, 3.1 nM, samples 1-3, read-out: cell proliferation inhibition rate", "result": 31.2, "unit": "%"},
      {"measurement": "inhibition at 0.0063 µM", "setting": "[1]; Homo sapiens, PANC-1, 48 h, PANC-1, 6.3 nM, samples 1-3, read-out: cell proliferation inhibition rate", "result": 36, "unit": "%"},
      {"measurement": "inhibition at 0.0125 µM", "setting": "[1]; Homo sapiens, PANC-1, 48 h, PANC-1, 12.5 nM, samples 1-3, read-out: cell proliferation inhibition rate", "result": 49.2, "unit": "%"},
      {"measurement": "inhibition at 0.025 µM", "setting": "[1]; Homo sapiens, PANC-1, 48 h, PANC-1, 25.0 nM, samples 1-3, read-out: cell proliferation inhibition rate", "result": 59, "unit": "%"},
      {"measurement": "inhibition at 0.05 µM", "setting": "[1]; Homo sapiens, PANC-1, 48 h, PANC-1, 50.0 nM, samples 1-3, read-out: cell proliferation inhibition rate", "result": 64.8, "unit": "%"},
      {"measurement": "inhibition at 0.1 µM", "setting": "[1]; Homo sapiens, PANC-1, 48 h, PANC-1, 100.0 nM, samples 1-3, read-out: cell proliferation inhibition rate", "result": 80.3, "unit": "%"},
      {"measurement": "inhibition at 0.2 µM", "setting": "[1]; Homo sapiens, PANC-1, 48 h, PANC-1, 200.0 nM, samples 1-3, read-out: cell proliferation inhibition rate", "result": 93, "unit": "%"},
      {"measurement": "IC50", "setting": "[1]; Homo sapiens, pancreatic cancer cells PANC-1, MTT", "result": "14.4 ± 0.09", "unit": "nM"},
      {"measurement": "cell proliferation inhibition rate", "setting": "[1]; PANC-1, 3.1 nM, samples 1-3, 0.0031 µM", "result": "30.2815 and 32.0448"},
      {"measurement": "cell proliferation inhibition rate", "setting": "[1]; PANC-1, 6.3 nM, samples 1-3, 0.0063 µM", "result": "37.1753 and 34.7338"},
      {"measurement": "cell proliferation inhibition rate", "setting": "[1]; PANC-1, 12.5 nM, samples 1-3, 0.0125 µM", "result": "47.8196 and 50.5663"},
      {"measurement": "cell proliferation inhibition rate", "setting": "[1]; PANC-1, 25.0 nM, samples 1-3, 0.025 µM", "result": "58.7555 and 59.2302"},
      {"measurement": "cell proliferation inhibition rate", "setting": "[1]; PANC-1, 50.0 nM, samples 1-3, 0.05 µM", "result": "65.1441 and 74.5337"},
      {"measurement": "cell proliferation inhibition rate", "setting": "[1]; PANC-1, 100.0 nM, samples 1-3, 0.1 µM", "result": "81.0105 and 79.6202"},
      {"measurement": "cell proliferation inhibition rate", "setting": "[1]; PANC-1, 200.0 nM, samples 1-3, 0.2 µM", "result": "98.8589 and 97.2313"},
      {"measurement": "cell proliferation inhibition rate", "setting": "[2]; HCT116, 6.3 nM, samples 1-3, 0.0063 µM", "result": "20.0440 and 13.1188"},
      {"measurement": "cell proliferation inhibition rate", "setting": "[2]; HCT116, 12.5 nM, samples 1-3, 0.0125 µM", "result": "43.4099 and 47.0957"},
      {"measurement": "cell proliferation inhibition rate", "setting": "[2]; HCT116, 25.0 nM, samples 1-3, 0.025 µM", "result": "66.2973 and 50.7426"},
      {"measurement": "cell proliferation inhibition rate", "setting": "[2]; HCT116, 50.0 nM, samples 1-3, 0.05 µM", "result": "79.2127 and 76.2156"},
      {"measurement": "cell proliferation inhibition rate", "setting": "[2]; HCT116, 100.0 nM, samples 1-3, 0.1 µM", "result": "80.3075 and 88.8251"},
      {"measurement": "cell proliferation inhibition rate", "setting": "[2]; HCT116, 200.0 nM, samples 1-3, 0.2 µM", "result": "98.8058 and 98.5677"},
      {"measurement": "inhibition at 0.0063 µM", "setting": "[2]; Homo sapiens, HCT-116, 48 h, HCT116, 6.3 nM, samples 1-3, read-out: cell proliferation inhibition rate", "result": 24.7, "unit": "%"},
      {"measurement": "inhibition at 0.0125 µM", "setting": "[2]; Homo sapiens, HCT-116, 48 h, HCT116, 12.5 nM, samples 1-3, read-out: cell proliferation inhibition rate", "result": 42.1, "unit": "%"},
      {"measurement": "inhibition at 0.025 µM", "setting": "[2]; Homo sapiens, HCT-116, 48 h, HCT116, 25.0 nM, samples 1-3, read-out: cell proliferation inhibition rate", "result": 54.9, "unit": "%"},
      {"measurement": "inhibition at 0.05 µM", "setting": "[2]; Homo sapiens, HCT-116, 48 h, HCT116, 50.0 nM, samples 1-3, read-out: cell proliferation inhibition rate", "result": 75.6, "unit": "%"},
      {"measurement": "inhibition at 0.1 µM", "setting": "[2]; Homo sapiens, HCT-116, 48 h, HCT116, 100.0 nM, samples 1-3, read-out: cell proliferation inhibition rate", "result": 83, "unit": "%"},
      {"measurement": "inhibition at 0.2 µM", "setting": "[2]; Homo sapiens, HCT-116, 48 h, HCT116, 200.0 nM, samples 1-3, read-out: cell proliferation inhibition rate", "result": 97.2, "unit": "%"},
      {"measurement": "IC50", "setting": "[2]; Homo sapiens, HCT-116, colon cancer cells HCT116, MTT", "result": "18.88 ± 0.13", "unit": "nM"},
      {"measurement": "cell proliferation inhibition rate", "setting": "[3]; A549, 6.3 nM, 0.0063 µM", "result": "16.7429 and 15.2571"},
      {"measurement": "cell proliferation inhibition rate", "setting": "[3]; A549, 12.5 nM, 0.0125 µM", "result": "29.4400 and 25.9563"},
      {"measurement": "cell proliferation inhibition rate", "setting": "[3]; A549, 25.0 nM, 0.025 µM", "result": "43.2000 and 46.9811"},
      {"measurement": "cell proliferation inhibition rate", "setting": "[3]; A549, 50.0 nM, 0.05 µM", "result": "66.0800 and 68.6718"},
      {"measurement": "cell proliferation inhibition rate", "setting": "[3]; A549, 100.0 nM, 0.1 µM", "result": "84.2971 and 83.2186"},
      {"measurement": "cell proliferation inhibition rate", "setting": "[3]; A549, 200.0 nM, 0.2 µM", "result": "97.0057 and 96.3263"},
      {"measurement": "inhibition at 0.0063 µM", "setting": "[3]; Homo sapiens, A549, 48 h, A549, 6.3 nM, read-out: cell proliferation inhibition rate", "result": 13.7, "unit": "%"},
      {"measurement": "inhibition at 0.0125 µM", "setting": "[3]; Homo sapiens, A549, 48 h, A549, 12.5 nM, read-out: cell proliferation inhibition rate", "result": 22.1, "unit": "%"}
    ]}
  ]
}
